We go through 14 molecules from ChEMBL document CHEMBL1128940, “Dual inhibition of angiotensin-converting enzyme and neutral endopeptidase by tricyclic benzazepinone thiols” (Bioorg Med Chem Lett, 1996).

SMILES strings stand for the structures.

In one test the target is Neprilysin (Homo sapiens, UniProt P08473). Description: Inhibition of neutral endopeptidase.
Test [1] has as its target Angiotensin-converting enzyme (Homo sapiens, UniProt P12821+Q9BYF1). The test can be described thus: Inhibition of Angiotensin I converting enzyme. It is filed as protein assay.

Sequence of Neprilysin (P08473 whole entry): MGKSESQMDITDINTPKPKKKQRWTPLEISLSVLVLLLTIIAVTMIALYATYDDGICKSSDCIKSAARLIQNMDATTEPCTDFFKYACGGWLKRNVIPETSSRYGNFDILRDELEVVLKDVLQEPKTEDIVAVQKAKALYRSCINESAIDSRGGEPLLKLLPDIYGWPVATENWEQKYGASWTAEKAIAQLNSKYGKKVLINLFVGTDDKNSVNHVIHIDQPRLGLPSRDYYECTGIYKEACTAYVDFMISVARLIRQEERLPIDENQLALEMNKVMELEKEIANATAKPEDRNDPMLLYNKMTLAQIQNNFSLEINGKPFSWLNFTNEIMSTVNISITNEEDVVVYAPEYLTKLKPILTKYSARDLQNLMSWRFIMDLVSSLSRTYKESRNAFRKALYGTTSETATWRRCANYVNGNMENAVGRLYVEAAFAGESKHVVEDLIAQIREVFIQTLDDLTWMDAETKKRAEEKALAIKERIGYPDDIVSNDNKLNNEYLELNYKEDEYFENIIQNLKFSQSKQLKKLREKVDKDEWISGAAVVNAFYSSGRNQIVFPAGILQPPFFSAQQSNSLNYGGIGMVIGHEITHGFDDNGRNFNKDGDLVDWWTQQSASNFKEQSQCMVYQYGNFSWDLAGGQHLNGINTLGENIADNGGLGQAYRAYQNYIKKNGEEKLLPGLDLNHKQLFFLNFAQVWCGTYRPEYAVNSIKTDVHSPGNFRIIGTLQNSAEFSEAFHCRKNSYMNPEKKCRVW

For the molecule `C[C@H](S)C(=O)NC1CCc2cccc3c2N(C1=O)[C@H](C(=O)O)C3` (some centres not stated), the results for the IC50 (against Neprilysin; in test [1]) were > 1000 nM and 165 nM, respectively.
For `O=C(N[C@@H]1CCc2cccc3c2N(C1=O)[C@H](C(=O)O)C3)[C@@H](S)Cc1ccccc1` the same measures were > 1000 nM and 62 nM.
The matching figures for `O=C(N[C@H]1CCc2cccc3c2N(C1=O)[C@H](C(=O)O)C3)[C@@H](S)Cc1ccccc1`: 48 nM and 40 nM.
On to `O=C(O)[C@@H]1Cc2cccc3c2N1C(=O)C(NC(=O)C1(S)Cc2ccccc2C1)CC3` (some centres not stated), for which the IC50 (commonly the concentration at which inhibition is half-maximal) is 505 nM at Neprilysin and > 1000 nM in test [1].
The matching figures for `O=C(NC1CCc2cccc3c2N(C1=O)[C@H](C(=O)O)C3)[C@H](S)Cc1ccccc1` (some centres not stated): 83 nM and 283 nM.
For `O=C(NC1CCc2cccc3c2N(C1=O)[C@H](C(=O)O)C3)[C@@H](S)Cc1ccc(-c2ccccc2)cc1` (some centres not stated) the same measures were > 1000 nM and 89 nM.
As to `CC[C@@H](C)[C@H](S)C(=O)NC1CCc2cccc3c2N(C1=O)[C@H](C(=O)O)C3` (some centres not stated), the IC50 was > 1000 nM at Neprilysin and 41 nM in test [1].
As for `O=C(NC1CCc2cccc3c2N(C1=O)[C@H](C(=O)O)C3)[C@@H](S)C1CCCCC1` (some centres not stated), the IC50 is > 1000 nM on Neprilysin and < 100 nM in test [1].
For `CC(C)(S)C(=O)NC1CCc2cccc3c2N(C1=O)[C@H](C(=O)O)C3` (some centres not stated) the same measures were > 1000 nM and > 1000 nM.
The matching figures for `CC(C)[C@H](S)C(=O)NC1CCc2cccc3c2N(C1=O)[C@H](C(=O)O)C3` (some centres not stated): 940 nM and 30 nM.
For `O=C(CS)NC1CCc2cccc3c2N(C1=O)[C@H](C(=O)O)C3` (some centres not stated), the half-maximal inhibitory concentration (IC50) at Neprilysin is > 1000 nM.
Consider `O=C(O)[C@@H]1Cc2cccc3c2N1C(=O)C(NC(=O)C1(S)CCCC1)CC3` (some centres not stated), for which the IC50 on Neprilysin was > 1000 nM; in test [1] it was 253 nM.
In the case of `O=C(N[C@H]1CCc2cccc3c2N(C1=O)[C@H](C(=O)O)C3)C(CS)Cc1ccc(-c2ccccc2)cc1` (stereo in doubt; 4m (S)), the concentration for half-maximal inhibition (IC50) against Neprilysin was determined as 15 nM; in test [1] it was 77 nM.
For `O=C(N[C@H]1CCc2cccc3c2N(C1=O)[C@H](C(=O)O)C3)C(CS)Cc1ccc(-c2ccccc2)cc1` (stereo in doubt; 4n (S)) the same measures were 12 nM and 1120 nM.
